Measurements from patent US10233151B2, “Use of a novel 3-aryl-4-catechol-pyrrole-N-propanol compound and the derivatives thereof to treat cancer and diseases related to excessive angiogenesis” (Centre National de la Recherche Scientifique (CNRS), priority 2014, dated 2019).

Assays:
[1] = EPR competition with BMPO, superoxide anion from xanthine/xanthine oxidase (aqueous phase); format: biochemical; conditions: xanthine oxidase 53 mU/mL + xanthine 250 μM in PBS pH 7.4, BMPO 50 mM, 10 minutes of incubation; read-out: IC50, inhibition of the formation of the BMPO superoxide adduct
Method: The reactivity of compound (1) with superoxide anion in the aqueous phase was also studied by EPR at room temperature using the same competition method with the trapping reagent BMPO at 50 mM (FIG. 1B). In this case, superoxide anion is produced by enzymatic reaction of xanthine oxidase (XO, 53 mU/mL) with xanthine (X, 250 μM) in PBS (pH 7.4) containing 0.1 mM ethylenediaminetetraacetic acid (EDTA). The concentrations used for compound (1) are between 0.34 μM and 43.1 μM. These experiments were carried out with an ELEXSYS E500 EPR spectrometer (Bruker, Wissembourg, France), operating at a frequency of 9.82 GHz (X-band) with the following parameters: magnetic field: 349.0 ±6.6 mT; sweep time: 41.94 s; sampling: 1024 points; time constant: 40.96 ms; conversion time: 40.96 ms; modulation amplitude: 0.10 mT; modulation frequency: 100 kHz; gain: 60 dB; microwave power: 10 mW.

[2] = tested on: human glioblastoma (U87) grafted onto the chick embryo chorioallantoic membrane; experiment: In ovo tumor angiogenesis, glioblastoma grafted onto chick embryo chorioallantoic membrane (CAM); format: in vivo; conditions: 50 μM, 20 μL on tumor every 24 hours
Method: The effect of compound (1) on tumor angiogenesis was evaluated using the in ovo model based on human tumor grafted onto chick embryo chorioallantoic membrane (CAM).
This experimental approach makes it possible in only a few days to evaluate the tumor's progression and level of vascularization.
At the tenth day of embryonic development, glioblastoma cells (U87, 5×10^6 in 20 μL) were deposited on the chorioallantoic membrane. Two days after the graft, compound (1) at a concentration of 50 μM in a volume of 20 μL was deposited on the surface of the tumor formed. This treatment was repeated every 24 hours for 5 days. The control group was treated with solvent. The test was carried out on 20 eggs bearing glioblastoma tumors for each group. Images of the tumors were taken at day 3 (24 hours after treatment), at day 5 (3 days after treatment) and at day 7 (5 days after treatment) of tumor development. […] In order to determine the antiangiogenic mechanism of compound (1), VEGF was assayed by the ELISA method (Invitrogen, Novex technology), from the culture supernatant of U87 and HCT-116 cells, under normoxic and hypoxic conditions.

K562 cells = experiment: Cell growth test (CellTiter-Blue), K562; format: cell-based; conditions: Homo sapiens; K562, normoxia, 72 hours; read-out: IC50 (50% decrease in cell growth)
Method: The biological activity of compound (1), as well as that of its structural analogues, was studied in vitro on 7 different cancer cell lines: • HCT-116 (colorectal cancer) • U87 (glioblastoma) • K562 (myeloid leukemia) and K562 R • MDA-MB 231 (mammary adenocarcinoma) • MCF-7 (mammary adenocarcinoma) • A549 (pulmonary alveolar adenocarcinoma)
The cells selected for this study were incubated at 37° C. in the presence of compound (1) added in the culture medium at various concentrations and at various times. The set of experiments carried out made it possible to determine the degree of cytotoxicity of the compound tested (IC50), its capacity to induce cell death by apoptosis, in close dependence on extracellular superoxide anion for its activation.
The effect of compound (1) on the growth of HCT-116, U87, K562, K562R, MDA-MB 231, MCF-7 and A549 cells, cultured in normoxia, was evaluated using a cell growth test (CellTiter-Blue™ Cell Viability Assay, Promega).

**Q.** For `OCCCn1cc(-c2ccccc2)c(-c2ccc(O)c(O)c2)c1` [compound (1)], which IC50 [1] is on record?
**A.** The IC50 was 3.2 µM.

**Q.** And the tumor vascularization ([2]; after 3 treatments (day 5), also day 7, vs control group)?
**A.** Its tumor vascularization is “inhibition of tumor vascularization”.

**Q.** And the “growth of the treated tumor” value ([2]; day 7)?
**A.** Its value is “significant inhibition of the growth of the treated tumor”.

**Q.** What about the IC50 (K562 cells) of the same compound?
**A.** The IC50 was 232 µM.
